Test results: ChEMBL document CHEMBL1201862, “PubChem BioAssay data set” (2004)
Active and inactive are the calls of the source.

Assays:
[1] = molecular target: T1, Short transient receptor potential channel 4 (Mus musculus, UniProt Q9QUQ5); assay: mouse TRPC4 channel activators, dose response, cell-based, HEK293 TRPC4/mu-opioid, Fluo-4 calcium (AID 434937); format: functional
T1 sequence (Q9QUQ5 whole entry): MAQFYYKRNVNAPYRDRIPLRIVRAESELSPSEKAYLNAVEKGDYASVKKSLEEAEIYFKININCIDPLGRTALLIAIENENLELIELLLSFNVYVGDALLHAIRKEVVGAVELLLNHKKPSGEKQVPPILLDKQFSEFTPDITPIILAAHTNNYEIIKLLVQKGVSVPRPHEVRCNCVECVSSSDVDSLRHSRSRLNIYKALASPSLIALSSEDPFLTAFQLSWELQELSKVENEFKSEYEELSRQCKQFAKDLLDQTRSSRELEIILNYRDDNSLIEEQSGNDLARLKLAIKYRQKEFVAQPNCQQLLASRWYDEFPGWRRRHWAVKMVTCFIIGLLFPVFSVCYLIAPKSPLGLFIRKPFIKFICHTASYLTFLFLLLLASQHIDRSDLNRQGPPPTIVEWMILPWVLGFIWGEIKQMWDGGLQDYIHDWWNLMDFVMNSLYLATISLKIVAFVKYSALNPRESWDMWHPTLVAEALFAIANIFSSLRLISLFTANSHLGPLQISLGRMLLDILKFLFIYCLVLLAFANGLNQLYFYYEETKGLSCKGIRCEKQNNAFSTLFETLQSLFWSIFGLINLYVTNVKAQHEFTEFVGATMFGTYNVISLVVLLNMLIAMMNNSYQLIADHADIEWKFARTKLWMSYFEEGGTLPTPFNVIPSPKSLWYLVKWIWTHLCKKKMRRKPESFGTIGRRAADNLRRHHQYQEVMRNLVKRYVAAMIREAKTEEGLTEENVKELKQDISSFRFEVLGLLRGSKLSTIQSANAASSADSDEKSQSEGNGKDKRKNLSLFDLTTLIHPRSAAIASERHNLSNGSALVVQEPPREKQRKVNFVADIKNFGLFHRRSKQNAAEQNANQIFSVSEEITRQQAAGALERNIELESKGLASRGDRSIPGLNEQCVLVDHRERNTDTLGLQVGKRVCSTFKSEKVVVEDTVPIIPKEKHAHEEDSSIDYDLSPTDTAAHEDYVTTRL

[2] = molecular target: T2, High affinity choline transporter 1 (Homo sapiens, UniProt Q9GZV3); assay: CHT inhibitors, dose response, cell-based, 5-point CRC, membrane potential dye (AID 504840); format: functional
T2 sequence (Q9GZV3 whole entry): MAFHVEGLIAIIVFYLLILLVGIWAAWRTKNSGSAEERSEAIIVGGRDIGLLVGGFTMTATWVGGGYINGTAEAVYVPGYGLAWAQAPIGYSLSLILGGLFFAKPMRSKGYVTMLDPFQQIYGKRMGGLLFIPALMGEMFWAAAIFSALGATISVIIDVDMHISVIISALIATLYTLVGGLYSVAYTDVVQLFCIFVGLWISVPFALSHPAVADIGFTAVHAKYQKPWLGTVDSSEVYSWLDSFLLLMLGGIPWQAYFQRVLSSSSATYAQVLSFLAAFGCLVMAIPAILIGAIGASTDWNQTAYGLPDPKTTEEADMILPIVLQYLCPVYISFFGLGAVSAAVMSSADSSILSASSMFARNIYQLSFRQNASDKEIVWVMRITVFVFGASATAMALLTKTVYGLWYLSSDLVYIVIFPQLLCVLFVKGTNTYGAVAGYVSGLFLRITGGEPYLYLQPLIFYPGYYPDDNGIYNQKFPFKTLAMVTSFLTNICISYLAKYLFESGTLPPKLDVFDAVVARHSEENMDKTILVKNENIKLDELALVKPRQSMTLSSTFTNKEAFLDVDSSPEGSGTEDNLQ

H4 = assay: Luminescence Cell-Based Dose Response HTS to Identify Activators of 5'UTR Stem-Loop Driven Prion Protein mRNA Translation in H4 Neuroglioblastoma Cells. [Related pubchem assays: 1829 (Project Summary), 1814 (Primary HTS)]; format: functional; details: Homo sapiens
[3] = Luminescence Cell-Based Dose Response HTS to Identify Activators of Luciferase Translation or Activity in H4 […] Cells. [Related pubchem assays: 1829 (Project Summary), 1814 (Primary HTS)]; format: functional
[4] = Luminescence Cell-Based Dose Confirmation HTS to Identify Activators of 5'UTR Stem-Loop Driven Alpha-Synuclein mRNA Translation in H4 Neuroglioblastoma Cells. [Related pubchem assays: 1829 (Project Summary), 1814 (Primary HTS)]; format: functional
Streptokinase A = molecular target: T3, Streptokinase A (Streptococcus pyogenes serotype M1, UniProt P10520); assay: S. pyogenes streptokinase expression inhibitors, potency, dose response, plasminogen activation absorbance, OD405 (AID 1914); format: functional, Streptococcus pyogenes M1 GAS;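 also: secreted streptokinase activity via plasminogen activation per viability signal from cell pellet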
T3 sequence (P10520 whole entry): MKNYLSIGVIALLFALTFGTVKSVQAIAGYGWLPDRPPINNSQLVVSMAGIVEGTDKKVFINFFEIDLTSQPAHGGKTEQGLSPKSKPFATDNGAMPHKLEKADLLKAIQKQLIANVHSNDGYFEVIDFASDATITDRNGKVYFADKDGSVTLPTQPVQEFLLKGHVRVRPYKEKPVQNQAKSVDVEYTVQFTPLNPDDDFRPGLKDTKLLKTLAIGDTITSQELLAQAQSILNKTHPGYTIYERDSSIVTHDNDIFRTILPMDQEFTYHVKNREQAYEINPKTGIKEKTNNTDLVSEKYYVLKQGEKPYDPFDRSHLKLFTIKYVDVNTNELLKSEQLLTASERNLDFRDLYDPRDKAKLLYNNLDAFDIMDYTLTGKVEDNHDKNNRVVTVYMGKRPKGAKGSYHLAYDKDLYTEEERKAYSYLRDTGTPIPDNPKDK

[5] = tested on: Streptococcus sp. 'group A'; assay: growth inhibition of control SK(-) GAS strain, dose response, counter-screen for streptokinase expression inhibitor project, luminescence, kanamycin, BacTiterGlo, confirmation (AID 1900); format: functional, organism-based
Streptococcus = assay: Group A Streptococcus viability loss, dose response, counter-screen for streptokinase expression inhibitor project, luminescence, BacTiterGlo (AID 1915); format: functional, organism-based;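 also: potency for reduction of bacterial viability or growth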
[6] = inhibitors of intracellular T. cruzi replication, confirmation, NIH3T3 host cells, beta-gal luminescence (AID 2044); format: functional, cell-based;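 also: intracellular parasites grown in NIH/3T3 mouse fibroblasts as host cells; luminescent beta-galactosidase reporter signal from transgenic T. cruzi replicating inside host cells; inhibitors lower the luminescence signal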
INS1 = assay: beta cell apoptosis inhibitors, cytokine rescue, dose response, luminescence, retest (AID 449756); format: functional, cell-based; details: Rattus norvegicus;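 also: cell death triggered by IL-1 beta plus TNF-alpha plus IFN-gamma mixture; protective hits raise ATP signal compared with cytokine alone wells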
[7] = cytotoxicity toward NIH3T3 fibroblasts, dose response, counter-screen, cell-based, ATP luminescence, mouse fibroblasts (AID 2010); format: functional;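 also: cells exposed to compound for about 90 hours before reading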
Fatty acid synthase = Fatty acid synthase (Homo sapiens, UniProt P49327); assay: FAS thioesterase domain inhibitors, dose response, biochemical, kinetic fluorescence intensity (AID 624326); format: functional;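 also: rate of fluorescence rise from hydrolysis of a fluorogenic O-methyl fluorescein ester substrate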
[8] = ZM109 Env clade C HIV-1 fusion inhibitors, dose response, HeLa effector, CEM target cells, luciferase, cherry-pick (AID 652058); format: functional, cell-based
[9] = molecular target: T4, Heat shock factor protein 1 (Mus musculus, UniProt P38532); assay: HSF1 potentiators in luciferase reporter cells, confirmation, cell-based, NIH3T3, luminescence, dose retest (AID 435004); format: functional;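 also: stress induced by proteasome inhibitor MG132 added 30 min after compound; luciferase reporter driven by HSF1 response element in NIH3T3 cells; actives raise luminescence as potentiators of the MG132 stress response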
T4 sequence (P38532 whole entry): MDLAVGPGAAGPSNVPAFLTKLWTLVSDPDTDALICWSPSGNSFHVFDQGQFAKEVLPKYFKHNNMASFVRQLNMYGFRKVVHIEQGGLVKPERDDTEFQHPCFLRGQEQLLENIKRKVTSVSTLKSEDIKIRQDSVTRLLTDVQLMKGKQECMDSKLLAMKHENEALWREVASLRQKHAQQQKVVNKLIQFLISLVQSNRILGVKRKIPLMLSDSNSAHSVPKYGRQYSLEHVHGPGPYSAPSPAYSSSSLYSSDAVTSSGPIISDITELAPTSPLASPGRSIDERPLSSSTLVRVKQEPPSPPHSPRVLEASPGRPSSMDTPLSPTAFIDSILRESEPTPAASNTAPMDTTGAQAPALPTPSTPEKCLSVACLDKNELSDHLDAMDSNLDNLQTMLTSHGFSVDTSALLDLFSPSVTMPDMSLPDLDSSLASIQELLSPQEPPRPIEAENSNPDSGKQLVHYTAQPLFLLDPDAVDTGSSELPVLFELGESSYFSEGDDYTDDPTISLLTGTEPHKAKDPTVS

[10] = molecular target: FAD-linked sulfhydryl oxidase ALR (Homo sapiens, UniProt P55789); assay: inhibitors of human ALR sulfhydryl oxidase, dose response, biochemical, H2O2 detection, luminescence, cherry-pick (AID 493248)
[11] = molecular target: T5, Corticotropin-releasing factor receptor 2/Corticotropin-releasing factor-binding protein (Homo sapiens, UniProt P24387+Q13324); assay: activators of CRF receptor 2 with binding protein – uHTS hits, confirmation (AID 602473); format: functional; details: read-out: EC50_Mean
T5 sequence (Q13324 whole entry): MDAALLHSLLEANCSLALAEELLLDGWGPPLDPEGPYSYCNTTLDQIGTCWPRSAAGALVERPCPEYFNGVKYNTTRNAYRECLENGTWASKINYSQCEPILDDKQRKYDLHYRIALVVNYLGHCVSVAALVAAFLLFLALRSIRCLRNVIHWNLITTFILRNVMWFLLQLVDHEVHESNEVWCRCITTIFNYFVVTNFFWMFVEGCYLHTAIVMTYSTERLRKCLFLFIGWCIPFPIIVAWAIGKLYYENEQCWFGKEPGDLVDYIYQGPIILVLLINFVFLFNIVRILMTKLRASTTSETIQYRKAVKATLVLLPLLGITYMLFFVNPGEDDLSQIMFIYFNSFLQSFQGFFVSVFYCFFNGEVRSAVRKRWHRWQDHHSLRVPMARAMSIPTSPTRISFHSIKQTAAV
T5 sequence (P24387 whole entry): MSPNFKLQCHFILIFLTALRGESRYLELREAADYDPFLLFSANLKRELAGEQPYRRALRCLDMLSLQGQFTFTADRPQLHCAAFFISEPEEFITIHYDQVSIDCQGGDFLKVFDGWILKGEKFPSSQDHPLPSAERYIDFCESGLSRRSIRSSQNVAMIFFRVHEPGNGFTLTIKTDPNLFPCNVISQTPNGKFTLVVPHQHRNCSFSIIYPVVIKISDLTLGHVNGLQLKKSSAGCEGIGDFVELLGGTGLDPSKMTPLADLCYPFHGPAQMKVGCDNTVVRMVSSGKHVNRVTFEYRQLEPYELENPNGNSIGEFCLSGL

[12] = inhibitors of clade B AD8 Env fusion, dose response, cell-based, cherry-pick (AID 652062); format: functional;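 also: luciferase signal from cell-cell fusion driven by HIV-1 clade B AD8 Env; potency is for inhibitors of fusion seen as a drop in luminescence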
[13] = inhibitors of HIV Env-driven cell fusion, dose response, cherry-pick (AID 652057); format: functional, cell-based

FAD-linked sulfhydryl oxidase ALR, sequence (P55789 whole entry): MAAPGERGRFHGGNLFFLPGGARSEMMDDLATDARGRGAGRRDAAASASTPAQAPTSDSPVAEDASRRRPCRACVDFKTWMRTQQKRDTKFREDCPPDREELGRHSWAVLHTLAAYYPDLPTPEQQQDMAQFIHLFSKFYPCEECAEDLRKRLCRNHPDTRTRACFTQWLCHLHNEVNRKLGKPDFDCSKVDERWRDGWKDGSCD
Fatty acid synthase, sequence (P49327 whole entry, the tested form may be a part): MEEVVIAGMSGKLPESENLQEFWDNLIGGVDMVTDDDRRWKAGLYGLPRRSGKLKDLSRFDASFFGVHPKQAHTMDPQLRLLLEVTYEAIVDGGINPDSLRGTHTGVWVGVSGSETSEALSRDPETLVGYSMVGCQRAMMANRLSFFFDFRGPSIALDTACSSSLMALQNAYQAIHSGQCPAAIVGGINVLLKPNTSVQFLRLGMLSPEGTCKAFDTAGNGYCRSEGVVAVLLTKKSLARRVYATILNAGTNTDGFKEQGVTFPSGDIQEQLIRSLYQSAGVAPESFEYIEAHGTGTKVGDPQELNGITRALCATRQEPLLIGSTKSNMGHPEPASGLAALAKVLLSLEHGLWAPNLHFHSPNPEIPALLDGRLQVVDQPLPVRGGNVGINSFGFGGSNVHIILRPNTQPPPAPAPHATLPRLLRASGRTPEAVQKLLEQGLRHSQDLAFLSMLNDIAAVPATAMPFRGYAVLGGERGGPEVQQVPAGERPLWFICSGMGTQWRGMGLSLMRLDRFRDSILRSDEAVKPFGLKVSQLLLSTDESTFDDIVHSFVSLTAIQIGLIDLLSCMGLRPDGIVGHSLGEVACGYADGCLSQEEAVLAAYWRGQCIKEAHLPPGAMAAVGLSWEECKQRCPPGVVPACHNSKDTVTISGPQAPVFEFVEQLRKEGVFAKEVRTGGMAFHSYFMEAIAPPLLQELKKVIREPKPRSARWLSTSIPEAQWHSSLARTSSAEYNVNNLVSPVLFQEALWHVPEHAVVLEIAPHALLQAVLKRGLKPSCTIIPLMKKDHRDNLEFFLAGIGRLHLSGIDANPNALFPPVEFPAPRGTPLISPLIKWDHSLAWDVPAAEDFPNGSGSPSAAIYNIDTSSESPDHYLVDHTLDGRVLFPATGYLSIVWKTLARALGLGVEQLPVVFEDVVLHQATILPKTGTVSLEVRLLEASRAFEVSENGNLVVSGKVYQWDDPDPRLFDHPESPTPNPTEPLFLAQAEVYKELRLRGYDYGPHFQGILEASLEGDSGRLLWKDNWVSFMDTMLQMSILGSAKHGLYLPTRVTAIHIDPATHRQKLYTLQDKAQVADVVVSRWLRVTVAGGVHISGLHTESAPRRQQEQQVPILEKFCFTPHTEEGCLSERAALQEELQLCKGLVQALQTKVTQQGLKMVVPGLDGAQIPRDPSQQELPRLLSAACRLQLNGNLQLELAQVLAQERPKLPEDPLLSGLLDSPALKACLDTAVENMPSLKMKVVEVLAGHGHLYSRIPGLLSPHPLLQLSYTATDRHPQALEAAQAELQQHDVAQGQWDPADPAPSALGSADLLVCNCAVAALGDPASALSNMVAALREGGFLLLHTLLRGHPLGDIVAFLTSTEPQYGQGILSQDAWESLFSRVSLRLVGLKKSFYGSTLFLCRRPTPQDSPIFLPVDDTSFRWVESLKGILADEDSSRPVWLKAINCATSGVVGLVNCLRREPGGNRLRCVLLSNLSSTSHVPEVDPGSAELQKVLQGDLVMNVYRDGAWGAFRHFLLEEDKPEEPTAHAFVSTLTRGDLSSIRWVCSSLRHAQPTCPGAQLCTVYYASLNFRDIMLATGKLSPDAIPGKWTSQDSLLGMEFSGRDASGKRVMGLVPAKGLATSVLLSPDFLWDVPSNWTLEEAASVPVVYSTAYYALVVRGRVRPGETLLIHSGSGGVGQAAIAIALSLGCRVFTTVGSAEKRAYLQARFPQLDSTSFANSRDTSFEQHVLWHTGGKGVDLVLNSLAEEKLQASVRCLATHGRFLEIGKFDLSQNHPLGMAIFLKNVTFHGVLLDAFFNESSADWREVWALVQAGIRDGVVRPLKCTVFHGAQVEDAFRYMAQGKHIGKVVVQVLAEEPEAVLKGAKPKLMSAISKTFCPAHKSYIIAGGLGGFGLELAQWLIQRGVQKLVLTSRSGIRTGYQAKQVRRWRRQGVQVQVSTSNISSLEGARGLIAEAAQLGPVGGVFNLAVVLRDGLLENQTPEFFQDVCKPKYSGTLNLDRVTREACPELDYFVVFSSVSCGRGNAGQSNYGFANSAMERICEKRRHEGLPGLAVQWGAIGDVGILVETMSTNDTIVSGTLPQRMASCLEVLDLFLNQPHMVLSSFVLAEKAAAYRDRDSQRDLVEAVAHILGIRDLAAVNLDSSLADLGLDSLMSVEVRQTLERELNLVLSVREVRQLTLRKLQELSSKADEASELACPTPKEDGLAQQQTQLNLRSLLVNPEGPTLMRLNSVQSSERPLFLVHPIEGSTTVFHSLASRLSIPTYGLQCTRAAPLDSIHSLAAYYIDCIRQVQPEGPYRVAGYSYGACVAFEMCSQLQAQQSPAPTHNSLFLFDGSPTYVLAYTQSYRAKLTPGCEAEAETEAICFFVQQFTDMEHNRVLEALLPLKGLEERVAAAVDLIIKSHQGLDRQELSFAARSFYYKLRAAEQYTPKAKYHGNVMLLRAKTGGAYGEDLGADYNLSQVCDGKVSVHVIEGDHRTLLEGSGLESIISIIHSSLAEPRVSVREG

## Cc1noc(C)c1S(=O)(=O)N1CCC(C(=O)NCCCN2CC(C)CC(C)C2)CC1 (stereo not drawn)
[1]
  EC50: 0.473 µM (active)

## Cc1ccc2nc3c(O)n(CCc4c[nH]cn4)cnc-3c2c1
[1]
  EC50: 1.88 µM (active)

## Cc1ccc(Nc2nc(CSc3nnc(-c4ccc(F)cc4)n3C)cs2)cc1
[2]
  IC50: 15.8 µM (active)
H4
  EC50: 15 µM (active)
[3]
  EC50: 16.9 µM (active)
[4]
  EC50: 17.2 µM (active)

## O=C(NC(=S)NNC(=O)c1ccccc1[N+](=O)[O-])c1ccc(Br)cc1
Streptokinase A
  EC50: > 150 µM (not active)
[1]
  EC50: 11.9 µM (active)
[5]
  EC50: 4.24 µM (active)
Streptococcus
  EC50: 11.6 µM (active)

## CCCc1cc(Nc2c(C)n(C)n(-c3ccccc3)c2=O)n2c(nc3ccccc32)c1C#N
[2]
  IC50: 13.8 µM (active)

## c1ccc2c(CN3CCCCCCC3)c[nH]c2c1
[6]
  EC50: 1.15 µM (active)
[2]
  IC50: 12.6 µM (active)
INS1
  AC50: 4.22 µM (active)
[7]
  EC50: > 30 µM (not active)

## CCn1c(N2CCN(CC(=O)Nc3cccc(C)c3C)CC2)nc2ccccc21
[1]
  EC50: 2.11 µM (active)

## CCN(CC(=O)Nc1cccc(OC)c1)c1ncnc2sc(C)c(C)c12
[2]
  IC50: 7.24 µM (active)

## O=C(c1cc2c(nc1O)CCCC2)N1CCc2c([nH]c3ccccc23)C1c1ccccc1F (stereo not drawn)
[2]
  IC50: 19.1 µM (active)

## CCCc1cc(C(=O)Nc2cccc([N+](=O)[O-])c2)cs1
Fatty acid synthase
  IC50: 8.66 µM (active)

## O=C(CSc1nc2ccccc2[nH]1)c1ccc2c(c1)OCO2
[2]
  IC50: 10 µM (active)

## CCOc1ncccc1C(=O)NCC(c1ccccc1)N(C)C (stereo not drawn)
[1]
  EC50: 1.19 µM (active)

## CN(C)CCN(C(=O)c1cccc2ccccc12)c1nc2cc3c(cc2s1)OCO3
[1]
  EC50: 5.96 µM (active)

## C=C(C)CN(CC)c1nc(N)c2c(N)nc3c(c2c1C#N)CC(=O)N3C12CC3CC(CC(C3)C1)C2
[6]
  EC50: 1.69 µM (active)
[8]
  AC50: 7.36 µM (active)
[9]
  EC50: > 260 µM (inactive)
[7]
  EC50: > 60 µM (not active)

## Sc1n[nH]c(-c2cc(Cl)cc(Cl)c2)n1
[2]
  IC50: 10.5 µM (active)
[10]
  AC50: 1.72 µM (active)

## Cn1c2ccccc2c(=O)c2c(=O)n(C3CCCCC3)c(-c3ccco3)nc21
[1]
  EC50: 4.73 µM (active)
[11]
  EC50: 8.22 µM (active)

## CC(C)N(C)CCOC(=O)C1COc2ccccc2O1 (stereo not drawn)
[2]
  IC50: 13.8 µM (active)

## COc1ccccc1Nc1ncnc2ccc(C)cc12
[2]
  IC50: 13.8 µM (active)

## Cc1ccc(C(=O)Nc2ccc(S(=O)(=O)NC3=NCCCCC3)cc2)c(C)c1
[2]
  IC50: 10.8 µM (active)

## CCCNC(=O)N1[C@H](C#N)[C@H](c2ccc(-c3ccc(C(=O)N(C)C)cc3)cc2)[C@@H]1CO
[12]
  AC50: 0.784 µM (active)
[8]
  AC50: 32.8 µM (active)

## Cc1ccc(S(=O)(=O)N(C)C[C@@H]2Oc3cc(C4=CCCC4)ccc3S(=O)(=O)N([C@@H](C)CO)C[C@H]2C)cc1
[12]
  AC50: 41.6 µM (active)
[8]
  AC50: 67.6 µM (active)
[13]
  AC50: 4.07 µM (active)
